Data taken from patent US20070054848A1, “Composition and method for nerve regeneration” (priority 2003, published 2007).

How the values were obtained:
[1] = tested on: cerebellar granule neurons from P7 rats; experiment: Neurite outgrowth assay, cerebellar neurons; assay type: cell-based, rat; conditions: cerebellar granule neurons; data not shown
Rho-kinase [2] = biological target: T1, Rho-kinase (Bos taurus, UniProt Q28021); experiment: Rho-kinase kinase assay with lysates of transfected 293T cells; assay type: cell-based; conditions: 293T cells transfected with myc-Rho-kinase; Y-27632 10 μM for 30 minutes
T1 sequence (Q28021 whole entry): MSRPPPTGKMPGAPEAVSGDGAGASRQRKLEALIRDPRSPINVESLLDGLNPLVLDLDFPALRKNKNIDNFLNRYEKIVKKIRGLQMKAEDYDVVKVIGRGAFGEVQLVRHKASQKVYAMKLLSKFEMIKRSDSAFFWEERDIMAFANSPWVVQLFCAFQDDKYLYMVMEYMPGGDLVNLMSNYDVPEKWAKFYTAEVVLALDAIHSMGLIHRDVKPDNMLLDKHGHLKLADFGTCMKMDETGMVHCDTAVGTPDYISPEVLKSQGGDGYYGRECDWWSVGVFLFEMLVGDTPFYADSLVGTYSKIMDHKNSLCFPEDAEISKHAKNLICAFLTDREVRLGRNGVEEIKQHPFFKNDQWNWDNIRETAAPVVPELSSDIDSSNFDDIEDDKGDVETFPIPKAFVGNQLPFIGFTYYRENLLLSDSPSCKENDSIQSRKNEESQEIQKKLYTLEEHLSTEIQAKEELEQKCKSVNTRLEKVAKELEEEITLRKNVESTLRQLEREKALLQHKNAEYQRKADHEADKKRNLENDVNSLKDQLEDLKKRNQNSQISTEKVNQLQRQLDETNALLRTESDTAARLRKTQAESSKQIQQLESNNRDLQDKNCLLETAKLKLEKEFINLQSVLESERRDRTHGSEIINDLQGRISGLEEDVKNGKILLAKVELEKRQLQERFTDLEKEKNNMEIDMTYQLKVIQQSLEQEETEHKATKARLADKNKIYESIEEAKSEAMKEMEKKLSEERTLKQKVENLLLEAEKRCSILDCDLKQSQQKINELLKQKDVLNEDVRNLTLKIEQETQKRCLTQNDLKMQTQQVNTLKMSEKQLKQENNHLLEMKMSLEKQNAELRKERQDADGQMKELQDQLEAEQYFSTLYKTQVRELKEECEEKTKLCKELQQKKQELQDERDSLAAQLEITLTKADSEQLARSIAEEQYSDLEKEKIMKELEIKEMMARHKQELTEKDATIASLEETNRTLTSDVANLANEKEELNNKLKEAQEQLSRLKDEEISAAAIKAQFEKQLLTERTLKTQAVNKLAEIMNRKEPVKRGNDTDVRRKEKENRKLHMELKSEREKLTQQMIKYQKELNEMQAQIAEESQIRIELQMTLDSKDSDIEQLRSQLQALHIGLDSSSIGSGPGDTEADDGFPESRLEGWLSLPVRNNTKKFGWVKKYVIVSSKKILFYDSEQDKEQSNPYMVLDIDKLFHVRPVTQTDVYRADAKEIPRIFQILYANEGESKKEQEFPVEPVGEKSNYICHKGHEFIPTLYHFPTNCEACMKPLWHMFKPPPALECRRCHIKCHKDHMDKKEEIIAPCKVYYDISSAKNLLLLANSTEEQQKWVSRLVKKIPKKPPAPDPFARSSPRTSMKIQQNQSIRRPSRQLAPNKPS
Protocol: Cells were lysed with lysis buffer (50 mM Tris-HCl (pH 7.5), 150 mM NaCl, 10% glycerol, 1% Nonidet-P40 and protease inhibitor cocktail). The kinase assay was carried out using the lysates.

N1E-115 cells [3] = experiment: Morphological analysis of N1E-115 cells; assay type: cell-based; conditions: for neurite formation / population with long neurites: Y-27632 10 μM for 30 minutes, constructs 48 hours after transfection
Protocol: N1E-115 cells were transfected with GFP, GFP-full-p21 or GFP-ΔNLS-p21, and cultured in serum-starved condition for 5 hours. Then, the medium was replaced with DMEM containing 10% fetal bovine serum. The cells were fixed at 48 hours after transfection. The morphology of the cells was categorized into 3 groups; neurite positive cells, round cells and the other cells. The cells with longer neurites than their soma were defined as neurite positive cells. The other cells had various features including microspikes, ruffles and a flattened appearance.

[4] = biological target: catalytic domain of Rho-kinase (GST-CAT) (Bos taurus, UniProt Q28021); experiment: In vitro binding assay of p21 and Rho-kinase (GST-CAT); conditions: co-incubated at the indicated concentrations
Chain of catalytic domain of Rho-kinase (GST-CAT) (Q28021 6-553 limits assumed): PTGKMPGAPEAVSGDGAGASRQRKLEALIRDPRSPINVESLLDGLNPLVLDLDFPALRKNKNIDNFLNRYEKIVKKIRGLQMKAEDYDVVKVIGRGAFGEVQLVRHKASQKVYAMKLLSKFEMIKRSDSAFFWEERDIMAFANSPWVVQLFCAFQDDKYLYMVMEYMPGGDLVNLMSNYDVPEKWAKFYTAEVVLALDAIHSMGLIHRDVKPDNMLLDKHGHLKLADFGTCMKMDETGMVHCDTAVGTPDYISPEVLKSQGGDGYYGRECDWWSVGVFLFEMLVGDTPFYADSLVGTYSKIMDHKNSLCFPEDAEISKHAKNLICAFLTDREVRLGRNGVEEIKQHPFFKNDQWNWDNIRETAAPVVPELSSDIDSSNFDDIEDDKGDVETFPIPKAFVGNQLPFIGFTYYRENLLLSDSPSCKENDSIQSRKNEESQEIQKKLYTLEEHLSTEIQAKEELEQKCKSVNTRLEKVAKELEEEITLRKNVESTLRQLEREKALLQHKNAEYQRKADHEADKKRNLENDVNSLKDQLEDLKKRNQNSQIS

[5] = biological target: T2, Recombinant human p75-Fc chimera (Homo sapiens, UniProt P08138); experiment: Co-precipitation of recombinant p75 and gangliosides; assay type: binding; conditions: precipitation with protein A sepharose, Western blot
T2 construct: Recombinant p75 extracellular domain fused to Fc purified from Sf21 cells; purchased Genzyme-Techne; host or cells: Sf21 cells
T2 sequence (P08138 29-250 limits assumed): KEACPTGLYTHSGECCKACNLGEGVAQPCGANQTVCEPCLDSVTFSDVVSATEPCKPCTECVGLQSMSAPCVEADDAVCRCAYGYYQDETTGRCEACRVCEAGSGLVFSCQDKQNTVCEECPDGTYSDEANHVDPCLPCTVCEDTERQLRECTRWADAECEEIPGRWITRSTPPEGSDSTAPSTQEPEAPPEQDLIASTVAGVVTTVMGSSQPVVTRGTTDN
Protocol: Recombinant human p75-Fc chimera (1 μg; Genzyme-Techne) and 1 μg of purified ganglioside GT1b (>98% purity, Seikagaku Co.) were incubated in 200 μl 0.025% Tween20/PBS for 2 h, and p75 was precipitated using proteinA sepharose (Amersham Pharmacia Biotech). The resultant precipitates were electrophoretically transferred to polyvinylidene difluoride membranes after SDS-PAGE with 7% gels and were immunoblotted with anti GT1b antibody (IgM, Seikagaku Co.) or anti p75 antibody.

RhoA = experiment: Affinity-precipitation of GTP-RhoA in cerebellar neurons; assay type: cell-based, mice; conditions: post-natal cerebellar neurons, wild type; MAG-Fc 25 μg/ml, Nogo peptide 4 μM
Protocol: 293 cells were transfected with pcDNA3 vectors containing wild type RhoA whose NH2-terminus is tagged with HA (Yamashita, T. et al., Neuron. 24:585-593, 1999) and/or full-length human p75 by lipofection using Lipofectamine 2000 (Gibco BRL). Cerebellar neurons from P9 mice were isolated as described previously (Cai et. al, Neuron, 22:89-101, 1999). Cells were lysed in 50 mM Tris (pH 7.5), 1% Triton X-100, 0.5% sodium deoxycholate, 0.1% SDS, 500 mM NaCl, 10 mM MgCl2, with leupeptin and aprotinin, each at 10 μg/ml. Cell lysates were clarified by centrifugation at 13,000×g at 4° C. for 10 min, and the supernatants were incubated with the 20 μg of GST-Rho binding domain of Rhotekin beads (Upstate Biotech.) at 4° C. for 45 min. The beads were washed 4 times with washing buffer (50 mM Tris (pH 7.5) containing 1% Triton X-100, 150 mM NaCl, 10 mM MgCl2, 10 μg/ml each of leupeptin and aprotinin). Bound Rho proteins were detected by Western blotting using a monoclonal antibody against RhoA (Santa Cruz Biotechnology).
Amino-terminally FLAG-tagged human p75 or the deletion mutants of p75 ICD were cloned into pcDNA3.1 expression plasmid, and were transfected with 293T cells. […] Bound Rho proteins were detected by Western blotting using a monoclonal antibody against RhoA (Santa Cruz Biotechnology).

[6] = biological target: T3, interaction of p75 with Rho GDI (Homo sapiens, UniProt P08138); experiment: Co-immunoprecipitation of p75 with Rho GDI or RhoA in transfected N1E-115 cells; assay type: cell-based; conditions: N1E-115 cells transfected with FLAG-tagged p75; Nogo peptide 4 μM, MAG-Fc 25 μg/ml, NGF 100 ng/ml
T3 construct: expressed in transfected cells; host or cells: N1E-115 cells
T3 sequence (P08138 29-427): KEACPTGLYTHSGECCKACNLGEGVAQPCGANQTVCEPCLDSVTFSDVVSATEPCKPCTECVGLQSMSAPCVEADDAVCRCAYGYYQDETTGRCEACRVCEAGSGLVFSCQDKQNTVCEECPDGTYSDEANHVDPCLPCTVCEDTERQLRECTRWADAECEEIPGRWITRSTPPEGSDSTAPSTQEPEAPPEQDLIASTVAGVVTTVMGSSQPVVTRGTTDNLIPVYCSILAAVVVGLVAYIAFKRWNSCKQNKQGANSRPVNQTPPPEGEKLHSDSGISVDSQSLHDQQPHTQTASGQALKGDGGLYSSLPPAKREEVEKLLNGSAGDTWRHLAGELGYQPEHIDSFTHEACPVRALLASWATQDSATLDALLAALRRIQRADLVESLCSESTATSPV

cerebellar neurons = experiment: Neurite outgrowth assay, post-natal cerebellar neurons; assay type: cell-based, mice; conditions: cerebellar neurons transfected with myc-tagged Rho GDI
p75 = biological target: T4, p75 (Homo sapiens, UniProt P08138); experiment: Co-precipitation of p75 and Rho GDI with purified recombinant proteins; assay type: binding; conditions: p75 precipitated from transfected 293T cells; purified recombinant proteins
T4 construct: host or cells: 293T cells (p75)
T4 sequence (P08138 29-427): T3 sequence (P08138 29-427)

N1E-115 cells [7] = experiment: Growth and differentiation of N1E-115 cells; assay type: cell-based; conditions: for proliferation of N1E-115 cells: until 48 hours after transfection
Protocol: Cells were seeded in 6-cm dishes, transfected, and were counted 1 and 2 days after transfection. The relative increases in the number of the cells are shown. The values are means±SEM of 3 independent experiments. *, p<0.01 compared with full-p21 (Student's t-test). There is no significant difference between GFP and GFP-ΔNLS-p21 transfected cells. […] N1E-115 cells were treated with DMSO, or transfected with GFP-full-p21 or GFP-ΔNLS-p21, then were harvested at 1, 2, 3 and 4 days. Arrowheads indicate hyperphosphorylated pRb, and the arrow indicates underphosphorylated pRb. […] Shown are photomicrographs of the cells transfected with each construct. […] N1E-115 cells exposed to Y-27632 (10 μM) for 30 minutes or expressing GFP, GFP-full-p21 or GFP-ΔNLS-p21 were categorized into 3 groups; the cells with long neurites (long neurite), cells with a round form (round), and cells with other forms (others). Data represent means±SEM of 3 independent experiments. *, p<0.05 compared with control. **, p<0.01 compared with control as well as full-p21 (Student's t-test).
(§1) NIH3T3 cells, N1E-115 cells and 293T cells were maintained in DMEM containing 10% fetal bovine serum. Lipofectamine 2000 (Invitrogen) was used for transfection. For the stress fiber formation assay, NIH3T3 cells were cultured in serum-free medium for 16 hours after transfection. Stress fiber formation was evoked by incubating the cells with 10% serum for 10 minutes. Hippocampal neurons were prepared from 18-day-old Sprague-Dawley rats, as previously described (Neumann, H. et al., Science. 269:549-552, 1995). Briefly, hippocampi were dissected and the meninges removed. The trimmed tissue was dissociated by trituration. The dissociated cells were plated on dishes pre-coated with poly-L-lysine (Sigma), and cultured in DMEM containing 10% fetal bovine serum for 24 hours. Then, the medium was replaced with DMEM with B27 supplement (Invitrogen), and the cells were transfected with GFP or GFP-ΔNLS-p21. Neuronal morphology was estimated at 24 hours after the transfection.

NIH3T3 cells = experiment: Stress fiber formation assay in NIH3T3 cells; assay type: cell-based; conditions: serum-starved 16 hours, 10% serum 10 minutes
Protocol: as §1

Rho-kinase [8] = biological target: T1, Rho-kinase; experiment: Co-immunoprecipitation of p21 constructs and Rho-kinase in 293T cells; assay type: cell-based; conditions: anti-p21 antibody
Protocol: 293T cells were transfected with myc-Rho-kinase in combination with GFP-full-p21 or GFP-ΔNLS-p21. At 48 hours after transfection, the cells were lysed with 1 ml of lysis buffer (50 mM Tris-HCl (pH 7.5), 150 mM NaCl, 10% glycerol, 0.5% Nonidet-P40 including protease inhibitor cocktail tablets (Roche). The cell lysates were centrifuged at 13,000×g for 20 minutes, and the supernatant was collected. Immunoprecipitations were performed for 2 hours at 4° C. using an anti-p21 mouse monoclonal antibody (Santa Cruz Biotechnology) and 0.75 ml of the supernatant. The immunocomplexes were collected with protein G-Sepharose (Amersham Pharmacia Biotech) slurry (50% v/v), washed 4 times with lysis buffer, and subjected to SDS-PAGE. They were transferred to the polyvinylidene difluoride membranes and probed with the anti-myc rabbit polyclonal antibody (Santa Cruz Biotechnology). Interaction of endogenous proteins in N1E-115 cells was assessed in the same way using anti Rho-kinase antibody.

hippocampal neurons = experiment: Neurite outgrowth and branching of hippocampal neurons; assay type: cell-based; conditions: rat E18 hippocampal neurons, 24 hours after transfection
Protocol: as §1
Cultures of the hippocampal neurons from rat E18 embryos were used. […] Twenty-four hours after transfection, the cells were fixed and immunolabeled with β-tubulin III. The total neurite length per neuron, the axonal length, defined as the length of the longest neurite per neuron, the number of primary processes originating from the neuronal somata, and the number of branch points per neuron were determined (Neumann, H. et al., J. Neurosci. 22:854-862, 2002).

Molecule: Cn1c2ccccc2c2c3c(c4c5ccccc5n(CCC#N)c4c21)CNC3=O [G06976]
- neurite outgrowth response to MAG-Fc or Nogo peptide with another PKC inhibitor [1]: Same results were obtained

Molecule: C[C@@H](N)[C@H]1CC[C@H](C(=O)Nc2ccncc2)CC1 [Y-27632, reference compound]
- Rho-kinase activity (compared to the original) (Rho-kinase [2]): 51.9%
- neurite formation / population with long neurites (N1E-115 cells [3]): induced significant neurite formation
- interaction of p21 with Rho-kinase [4]: inhibited the interaction of p21 with Rho-kinase in a dose dependent manner

Molecule: AKRRRLSSLRA [S6 kinase substrate peptide]
- interaction of p21 with Rho-kinase [4]: inhibited the interaction of p21 with Rho-kinase in a dose dependent manner

Molecule: GD1a
- association with recombinant p75 extracellular domain fused to Fc [5]: did not see any interaction

Molecule: GT1b
- association with recombinant p75 extracellular domain fused to Fc [5]: binds to p75 in a manner that is SDS-resistant

Molecule: NGF: Nerve growth factor [reference compound]
- RhoA activity (RhoA): rapidly inhibits RhoA activity
- interaction of p75 with Rho GDI as well as RhoA [6]: abolished the interaction

Molecule: Rho GDI: Rho GDP dissociation inhibitor; recombinant protein or myc-tagged Rho GDI plasmid over-expression
- effect of over-expression on inhibition of neurite outgrowth by MAG and the Nogo peptide (cerebellar neurons): abolished these inhibitory effects
- direct physical interaction with p75 (p75): bound to p75

Molecule: RhoA: bacterially produced RhoA, GDP-bound, GTP-bound or nucleotide-depleted
- direct physical interaction with p75 (p75): no interaction between them in any nucleotide state

Molecule: full-length p21: pEGFP-full-p21 (aa 1-164), mammalian expression vector for GFP fused protein
- Rho-kinase activity (compared to the original) (Rho-kinase [2]): no significant effect
- neurite formation / population with long neurites (N1E-115 cells [3]): no increase in the cell population that had long neurites
- proliferation of N1E-115 cells (N1E-115 cells [7]): stopped proliferation
- actin stress fiber formation after the addition of serum (NIH3T3 cells): Extensive actin stress fibers were observed
- co-immunoprecipitation of myc-tagged Rho-kinase (Rho-kinase [8]): only a faint signal could be detected

Molecule: ΔNLS-p21: p21 with loss of nuclear localization signal (aa 1-140), expressed as GFP fused protein
- Rho-kinase activity (compared to the original) (Rho-kinase [2]): 48.1%
- cells that extended long neurites (N1E-115 cells [3]; 48 hours after transfection): more than 45%
- increase of cells with long neurites compared to the control (N1E-115 cells [3]; 48 hours after transfection): 3.1 fold
- differentiation inducing activity (N1E-115 cells [7]; cyclin D3 and pRb Western blot): has no differentiation inducing activity
- proliferation of N1E-115 cells (N1E-115 cells [7]): proliferated until 48 hours after transfection
- actin stress fiber formation after the addition of serum (NIH3T3 cells): little stress fiber formation
- co-immunoprecipitation of myc-tagged Rho-kinase (Rho-kinase [8]): efficiently precipitated myc-tagged Rho-kinase
- number of primary processes (hippocampal neurons): no change in the number of primary processes
- number of branch points per neuron (hippocampal neurons; control 1.3): 2.6
- axonal length (length of the longest neurite per neuron) (hippocampal neurons; control 66.3): 162.9 μm
- total neurite length per neuron (hippocampal neurons; control 135.9): 307.2 μm
